# Source: patent US11433013B2, “Peptide for preventing skin damage caused by air pollutants and for anti-aging, and use thereof” (CAREGEN CO., LTD., priority 2019, dated 2022)
# No end group written: not given here.
# System: CYP1A1
# Experiment: CYP1A1 gene expression by RT-PCR, HaCaT cells treated with pollutants
# Format: cell-based, human
# Method: In order to confirm an effect of inhibiting inflow of pollutants into the cells via another method, the cells were treated with TCDD, PM, and CSE, and expression levels of CYP1A1 and COX-2 were confirmed. When the activity of AhR is promoted by the pollutants such as TCDD, the AhR acts as a transcription factor and increases expressions of CYP1A1 and COX-2, and thus a degree of the inflow of the pollutants into the cells and whether the AhR is activated or not may be confirmed by measuring expression levels of CYP1A1 and COX-2 genes. TCDD, PM, and CSE were each used after mixing it with the peptide of the present invention and pre-reacting the mixture on a serum-free media for about 1 hour.
# In order to confirm the results of the cells treated with TCDD, first, 78 passages of HaCaT cells were seeded in a 6-well plate at a cell density of 3×10^5/well and cultured for about 16 hours, and then, the culture solution was replaced with a serum-free media, and the resultant was treated with the pre-reacted mixture of TCDD and the peptide for about 2 hours. The treatment included TCDD at a concentration of about 0.1 μM and the peptide at concentrations of about 10 μM, about 50 μM, and about 100 μM, respectively. The negative control was not treated with the peptide but only treated with TCDD, and the positive control was treated with CH223191 at a concentration of about 10 μM and TCDD. The cells were reacted with the mixture for about 2 hours, and RNA was isolated from the resultant. After removing the culture solution, the plate on which the cells were cultured was treated with TRIzol (available from Thermo Fisher Scientific, USA), and a sample including RNA was obtained using a scraper. Then, the sample was treated with chloroform and centrifuged to obtain a supernatant. The supernatant was treated with isopropanol, centrifuged again, and RNA pellets at the bottom were confirmed. Next, the resultant was treated with 70% of ethanol to wash the pellets, and the pellets were sufficiently dried to isolate RNA. […]
sequence,measurement,setting,value
"SYSGVLFFLK [SEQ ID NO: 1, SYSGVLFFLK]",expression level of CYP1A1,"CSE about 2%, peptide about 10, 50, 100 μM, about 2 hours (FIG. 2C)",decreased as a concentration of the peptide increased
same,expression level of CYP1A1,"PM about 25 μg/cm^2, peptide about 10, 50, 100 μM, about 2 hours (FIG. 2B)",decreased as a concentration of the peptide increased
same,expression level of CYP1A1,"TCDD about 0.1 μM, peptide about 10, 50, 100 μM, about 2 hours (FIG. 2A)",decreased as a concentration of the peptide increased
